Results taken from ChEMBL document CHEMBL3817755, “Design, synthesis and biological evaluation of indazolepyrimidine based derivatives as anticancer agents with anti-angiogenic and antiproliferative activities” (Medchemcomm, 2016).

Tests used:
Format in all cases: functional
[1] = tested on: MDA-MB-435; assay: Growth inhibition of human MDA-MB-435 cells at 10 uM after 48 hrs by SRB assay; settings: MDA-MB-435, 48 h, read-out: GI
[2] = tested on: HT-29; assay: Growth inhibition of human HT-29 cells at 10 uM after 48 hrs by SRB assay; settings: HT-29, 48 h, read-out: GI
[3] = tested on: Malme-3M; assay: Growth inhibition of human MALME-3M cells at 10 uM after 48 hrs by SRB assay; settings: read-out: GI
[4] = tested on: SN12C; assay: Growth inhibition of human SN12C cells at 10 uM after 48 hrs by SRB assay; settings: read-out: GI
[5] = tested on: NCI-H226; assay: Growth inhibition of human NCI-H226 cells at 10 uM after 48 hrs by SRB assay; settings: NCI-H226, 48 h, read-out: GI
[6] = tested on: NCI-H23; assay: Growth inhibition of human NCI-H23 cells at 10 uM after 48 hrs by SRB assay; settings: NCI-H23, 48 h, read-out: GI
[7] = tested on: M14; assay: Growth inhibition of human M14 cells at 10 uM after 48 hrs by SRB assay; settings: M14, 48 h, read-out: GI
[8] = Growth inhibition of human HCC2998 cells at 10 uM after 48 hrs by SRB assay; settings: HCC 2998, 48 h, read-out: GI
[9] = Growth inhibition of human HCT15 cells at 10 uM after 48 hrs by SRB assay; settings: HCT-15, 48 h, read-out: GI
[10] = Growth inhibition of human SNB19 cells at 10 uM after 48 hrs by SRB assay; settings: SNB-19, 48 h, read-out: GI
[11] = tested on: NCI-H522; assay: Growth inhibition of human NCI-H522 cells at 10 uM after 48 hrs by SRB assay; settings: NCI-H522, 48 h, read-out: GI
[12] = tested on: T47D; assay: Growth inhibition of human T47D cells at 10 uM after 48 hrs by SRB assay; settings: read-out: GI
[13] = Growth inhibition of human OVCAR3 cells at 10 uM after 48 hrs by SRB assay; settings: OVCAR-3, 48 h, read-out: GI
[14] = Growth inhibition of human MOLT4 cells at 10 uM after 48 hrs by SRB assay; settings: MOLT-4, 48 h, read-out: GI
[15] = Growth inhibition of human SKOV3 cells at 10 uM after 48 hrs by SRB assay; settings: SK-OV-3, 48 h, read-out: GI
[16] = Growth inhibition of human UACC62 cells at 10 uM after 48 hrs by SRB assay; settings: UACC-62, 48 h, read-out: GI
[17] = Growth inhibition of human COLO205 cells at 10 uM after 48 hrs by SRB assay; settings: COLO 205, 48 h, read-out: GI
[18] = Growth inhibition of human HOP62 cells at 10 uM after 48 hrs by SRB assay; settings: HOP-62, 48 h, read-out: GI
[19] = Growth inhibition of human IGROV1 cells at 10 uM after 48 hrs by SRB assay; settings: IGROV-1, 48 h, read-out: GI
[20] = Growth inhibition of human LOXIMVI cells at 10 uM after 48 hrs by SRB assay; settings: LOX IMVI, read-out: GI
[21] = Growth inhibition of human RPMI8226 cells at 10 uM after 48 hrs by SRB assay; settings: RPMI-8226, 48 h, read-out: GI
[22] = Growth inhibition of human DU145 cells at 10 uM after 48 hrs by SRB assay; settings: DU-145, 48 h, read-out: GI
[23] = tested on: MDA-MB-468; assay: Growth inhibition of human MDA-MB-468 cells at 10 uM after 48 hrs by SRB assay; settings: MDA-MB-468, 48 h, read-out: GI
[24] = tested on: NCI-H460; assay: Growth inhibition of human NCI-H460 cells at 10 uM after 48 hrs by SRB assay; settings: NCI-H460, 48 h, read-out: GI
[25] = tested on: SK-MEL-5; assay: Growth inhibition of human SK-MEL-5 cells at 10 uM after 48 hrs by SRB assay; settings: SK-MEL-5, 48 h, read-out: GI
[26] = Growth inhibition of human SW620 cells at 10 uM after 48 hrs by SRB assay; settings: SW-620, 48 h, read-out: GI
[27] = tested on: 786-0; assay: Growth inhibition of human 786-0 cells at 10 uM after 48 hrs by SRB assay; settings: 786-0, 48 h, read-out: GI
[28] = Growth inhibition of human PC3 cells at 10 uM after 48 hrs by SRB assay; settings: PC-3, 48 h, read-out: GI
[29] = Growth inhibition of human SF268 cells at 10 uM after 48 hrs by SRB assay; settings: SF-268, 48 h, read-out: GI
[30] = Growth inhibition of human SNB75 cells at 10 uM after 48 hrs by SRB assay; settings: SNB-75, 48 h, read-out: GI
[31] = Growth inhibition of human UO31 cells at 10 uM after 48 hrs by SRB assay; settings: UO-31, 48 h, read-out: GI
[32] = tested on: A498; assay: Growth inhibition of human A498 cells at 10 uM after 48 hrs by SRB assay; settings: A498, 48 h, read-out: GI
[33] = Growth inhibition of human HOP92 cells at 10 uM after 48 hrs by SRB assay; settings: HOP-92, 48 h, read-out: GI
[34] = Growth inhibition of human HCT116 cells at 10 uM after 48 hrs by SRB assay; settings: HCT-116, 48 h, read-out: GI
[35] = tested on: EKVX; assay: Growth inhibition of human EKVX cells at 10 uM after 48 hrs by SRB assay; settings: read-out: GI
[36] = Growth inhibition of human HL-60(TB) cells at 10 uM after 48 hrs by SRB assay; settings: HL-60, 48 h, read-out: GI
[37] = Growth inhibition of human OVCAR4 cells at 10 uM after 48 hrs by SRB assay; settings: OVCAR-4, 48 h, read-out: GI
[38] = Growth inhibition of human NCI-ADR-RES cells at 10 uM after 48 hrs by SRB assay; settings: read-out: GI
[39] = Growth inhibition of human Hs 578T cells at 10 uM after 48 hrs by SRB assay; settings: read-out: GI
[40] = tested on: ACHN; assay: Growth inhibition of human ACHN cells at 10 uM after 48 hrs by SRB assay; settings: read-out: GI
[41] = tested on: SK-MEL-2; assay: Growth inhibition of human SK-MEL-2 cells at 10 uM after 48 hrs by SRB assay; settings: SK-MEL-2, 48 h, read-out: GI
[42] = tested on: SR; assay: Growth inhibition of human SR cells at 10 uM after 48 hrs by SRB assay; settings: read-out: GI

## Fc1ccc(Nc2nccc(Nc3ccc4[nH]ncc4c3)n2)cc1
[1]
  inhibition of growth at 10 µM: 25%
[2]
  inhibition of growth at 10 µM: 47%
[3]
  inhibition of growth at 10 µM: 3%
[4]
  inhibition of growth at 10 µM: 40%
[5]
  inhibition of growth at 10 µM: 53%
[6]
  inhibition of growth at 10 µM: 27%
[7]
  inhibition of growth at 10 µM: 38%
[8]
  inhibition of growth at 10 µM: 1%
[9]
  inhibition of growth at 10 µM: 38%
[10]
  inhibition of growth at 10 µM: 12%
[11]
  inhibition of growth at 10 µM: 57%
[12]
  inhibition of growth at 10 µM: 71%
[13]
  inhibition of growth at 10 µM: 14%
[14]
  inhibition of growth at 10 µM: 74%
[15]
  inhibition of growth at 10 µM: 24%
[16]
  inhibition of growth at 10 µM: 29%
[17]
  inhibition of growth at 10 µM: 39%
[18]
  inhibition of growth at 10 µM: 41%
[19]
  inhibition of growth at 10 µM: 44%
[20]
  inhibition of growth at 10 µM: 32%
[21]
  inhibition of growth at 10 µM: 59%
[22]
  inhibition of growth at 10 µM: 34%
[23]
  inhibition of growth at 10 µM: 53%
[24]
  inhibition of growth at 10 µM: 40%
[25]
  inhibition of growth at 10 µM: 66%
[26]
  inhibition of growth at 10 µM: 31%
[27]
  inhibition of growth at 10 µM: 32%
[28]
  inhibition of growth at 10 µM: 54%
[29]
  inhibition of growth at 10 µM: 29%
[30]
  inhibition of growth at 10 µM: 15%
[31]
  inhibition of growth at 10 µM: 61%
[32]
  inhibition of growth at 10 µM: 51%
[33]
  inhibition of growth at 10 µM: 81%
[34]
  inhibition of growth at 10 µM: 45%
[35]
  inhibition of growth at 10 µM: 29%
[36]
  inhibition of growth at 10 µM: 31%
[37]
  inhibition of growth at 10 µM: 27%
[38]
  inhibition of growth at 10 µM: 32%
[39]
  inhibition of growth at 10 µM: 35%
[40]
  inhibition of growth at 10 µM: 47%
[41]
  inhibition of growth at 10 µM: 24%
[42]
  inhibition of growth at 10 µM: 62%

## COc1cccc(Nc2nccc(Nc3ccc4[nH]ncc4c3)n2)c1
[1]
  inhibition of growth at 10 µM: 178%
[2]
  inhibition of growth at 10 µM: 158%
[3]
  inhibition of growth at 10 µM: 149%
[4]
  inhibition of growth at 10 µM: 80%
[5]
  inhibition of growth at 10 µM: 117%
[6]
  inhibition of growth at 10 µM: 129%
[7]
  inhibition of growth at 10 µM: 174%
[8]
  inhibition of growth at 10 µM: 107%
[9]
  inhibition of growth at 10 µM: 127%
[10]
  inhibition of growth at 10 µM: 76%
[11]
  inhibition of growth at 10 µM: 168%
[12]
  inhibition of growth at 10 µM: 152%
[13]
  inhibition of growth at 10 µM: 161%
[14]
  inhibition of growth at 10 µM: 132%
[15]
  inhibition of growth at 10 µM: 85%
[16]
  inhibition of growth at 10 µM: 157%
[17]
  inhibition of growth at 10 µM: 188%
[18]
  inhibition of growth at 10 µM: 111%
[19]
  inhibition of growth at 10 µM: 124%
[20]
  inhibition of growth at 10 µM: 167%
[21]
  inhibition of growth at 10 µM: 140%
[22]
  inhibition of growth at 10 µM: 159%
[23]
  inhibition of growth at 10 µM: 145%
[24]
  inhibition of growth at 10 µM: 168%
[25]
  inhibition of growth at 10 µM: 184%
[26]
  inhibition of growth at 10 µM: 169%
[27]
  inhibition of growth at 10 µM: 112%
[28]
  inhibition of growth at 10 µM: 181%
[29]
  inhibition of growth at 10 µM: 74%
[30]
  inhibition of growth at 10 µM: 70%
[31]
  inhibition of growth at 10 µM: 162%
[32]
  inhibition of growth at 10 µM: 87%
[33]
  inhibition of growth at 10 µM: 111%
[34]
  inhibition of growth at 10 µM: 187%
[35]
  inhibition of growth at 10 µM: 66%
[36]
  inhibition of growth at 10 µM: 162%
[37]
  inhibition of growth at 10 µM: 160%
[38]
  inhibition of growth at 10 µM: 111%
[39]
  inhibition of growth at 10 µM: 76%
[40]
  inhibition of growth at 10 µM: 103%
[41]
  inhibition of growth at 10 µM: 137%
[42]
  inhibition of growth at 10 µM: 111%
